How the values were obtained:
[1] = test system: 647-V (Bladder Carcinoma); assay: Bliss excess, mean over the matrix (fraction); higher = more synergy
Method in brief: (§1)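 After 24 hours at 37°C and 5% CO2 in 1536-well plates, cells in DMEM/F12 or RPMI plus 10% FBS received two-drug dose matrices for 72 hours. Viability came from CellTiter-Glo 2.0 luminescence and was scaled as inhibition, anchored at 0 by vehicle wells and at 1 by blank wells. Combination Emax is taken as the second-highest inhibition in the matrix, and Bliss excess as the observed combination effect less EA + EB − EA·EB, with EA and EB the single-agent effects.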

[2] = test system: A172 (Glioblastoma); assay: as above
Method in brief: as §1

[3] = test system: EFM-192A (Breast Carcinoma); assay: as above
Method in brief: as §1

[4] = test system: ETK-1 (Biliary Tract Carcinoma); assay: as above
Method in brief: as §1

[5] = test system: GDM-1 (Acute Myeloid Leukemia); assay: as above
Method in brief: as §1

[6] = test system: HCC-827 (Lung Adenocarcinoma); assay: as above
Method in brief: as §1

[7] = test system: HCC1143 (Breast Carcinoma); assay: as above
Method in brief: as §1

[8] = test system: HOP-92 (Non-Small Cell Lung Carcinoma); assay: as above
Method in brief: as §1

[9] = test system: HuO9 (Osteosarcoma); assay: as above
Method in brief: as §1

[10] = test system: JHH-6 (Hepatocellular Carcinoma); assay: as above
Method in brief: as §1

[11] = test system: KG-1 (Acute Myeloid Leukemia); assay: as above
Method in brief: as §1

[12] = test system: MCF7 (Breast Carcinoma); assay: as above
Method in brief: as §1

[13] = test system: MES-SA (Other Solid Carcinomas); assay: as above
Method in brief: as §1

[14] = test system: NCI-H1688 (Small Cell Lung Carcinoma); assay: as above
Method in brief: as §1

[15] = test system: PA-TU-8902 (Pancreatic Carcinoma); assay: as above
Method in brief: as §1

[16] = test system: RCC10RGB (Kidney Carcinoma); assay: as above
Method in brief: as §1

[17] = test system: SKN-3 (Head and Neck Carcinoma); assay: as above
Method in brief: as §1

[18] = test system: SNU-61 (Colorectal Carcinoma); assay: as above
Method in brief: as §1

[19] = test system: TYK-nu (Ovarian Carcinoma); assay: as above
Method in brief: as §1

[20] = test system: U-118-MG (Low Grade Glioma); assay: as above
Method in brief: as §1

[21] = test system: 647-V (Bladder Carcinoma); assay: combination Emax (second highest fraction inhibited in the dose matrix, 72 h); higher = more inhibition; extreme values may be limits of the assay
Method in brief: as §1

[22] = test system: A172 (Glioblastoma); assay: as above
Method in brief: as §1

[23] = test system: EFM-192A (Breast Carcinoma); assay: as above
Method in brief: as §1

[24] = test system: ETK-1 (Biliary Tract Carcinoma); assay: as above
Method in brief: as §1

[25] = test system: GDM-1 (Acute Myeloid Leukemia); assay: as above
Method in brief: as §1

[26] = test system: HCC-827 (Lung Adenocarcinoma); assay: as above
Method in brief: as §1

[27] = test system: HCC1143 (Breast Carcinoma); assay: as above
Method in brief: as §1

[28] = test system: HOP-92 (Non-Small Cell Lung Carcinoma); assay: as above
Method in brief: as §1

[29] = test system: HuO9 (Osteosarcoma); assay: as above
Method in brief: as §1

[30] = test system: JHH-6 (Hepatocellular Carcinoma); assay: as above
Method in brief: as §1

[31] = test system: KG-1 (Acute Myeloid Leukemia); assay: as above
Method in brief: as §1

[32] = test system: MCF7 (Breast Carcinoma); assay: as above
Method in brief: as §1

[33] = test system: MES-SA (Other Solid Carcinomas); assay: as above
Method in brief: as §1

[34] = test system: NCI-H1688 (Small Cell Lung Carcinoma); assay: as above
Method in brief: as §1

[35] = test system: PA-TU-8902 (Pancreatic Carcinoma); assay: as above
Method in brief: as §1

[36] = test system: RCC10RGB (Kidney Carcinoma); assay: as above
Method in brief: as §1

[37] = test system: SKN-3 (Head and Neck Carcinoma); assay: as above
Method in brief: as §1

[38] = test system: SNU-61 (Colorectal Carcinoma); assay: as above
Method in brief: as §1

[39] = test system: TYK-nu (Ovarian Carcinoma); assay: as above
Method in brief: as §1

[40] = test system: U-118-MG (Low Grade Glioma); assay: as above
Method in brief: as §1
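Throughout, for Bliss excess, mean over the matrix: after 72 h of two-drug dosing.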

COc1nnc2ccc(N3CCC(c4ccc(OCCN5CCN(C)C(=O)[C@H]5C)cc4)CC3)nn12 [AZD5153] + CN(CC[C@H](CSC1=CC=CC=C1)NC2=C(C=C(C=C2)S(=O)(=O)NC(=O)C3=CC=C(C=C3)N4CCC(CC4)[C@H](C5=CC=CC=C5C6=CC=C(C=C6)Cl)O)S(=O)(=O)C(F)(F)F)CCO [AZD4320] (first compound max 1 µM, 7x7, partner max 1 µM)
Bliss excess [1]: 0.0463 | Bliss excess [2]: 0.037 | Bliss excess [3]: 0.0355 | Bliss excess [4]: 0.0015 | Bliss excess [5]: 0.0276 | Bliss excess [6]: 0.0292 | Bliss excess [7]: 0.0577 | Bliss excess [8]: 0.0252 | Bliss excess [9]: 0.028 | Bliss excess [10]: -0.0296 | Bliss excess [11]: 0.0754 | Bliss excess [12]: -0.0031 | Bliss excess [13]: 0.0545 | Bliss excess [14]: -0.0021 | Bliss excess [15]: 0.0058 | Bliss excess [16]: -0.0004 | Bliss excess [17]: -0.0093 | Bliss excess [18]: -0.005 | Bliss excess [19]: 0.0168 | Bliss excess [20]: 0.0051 | combination Emax [21]: 0.513 | combination Emax [22]: 0.568 | combination Emax [23]: 0.308 | combination Emax [24]: 0.48 | combination Emax [25]: 1 | combination Emax [26]: 0.483 | combination Emax [27]: 0.454 | combination Emax [28]: 0.936 | combination Emax [29]: 0.938 | combination Emax [30]: 0.521 | combination Emax [31]: 1 | combination Emax [32]: 0.699 | combination Emax [33]: 0.393 | combination Emax [34]: 0.509 | combination Emax [35]: 0.269 | combination Emax [36]: 0.548 | combination Emax [37]: 0.452 | combination Emax [38]: 0.392 | combination Emax [39]: 0.628 | combination Emax [40]: 0.417

C[C@@H](c1ccc2nccn2c1)n1nnc2ncc(-c3cnn(C)c3)nc21 [Savolitinib] + CN(CC[C@H](CSC1=CC=CC=C1)NC2=C(C=C(C=C2)S(=O)(=O)NC(=O)C3=CC=C(C=C3)N4CCC(CC4)[C@H](C5=CC=CC=C5C6=CC=C(C=C6)Cl)O)S(=O)(=O)C(F)(F)F)CCO [AZD4320] (first compound max 1 µM, 7x7, partner max 1 µM)
Bliss excess [1]: -0.0378 | Bliss excess [2]: -0.0551 | Bliss excess [3]: 0.0065 | Bliss excess [4]: -0.0216 | Bliss excess [5]: -0.0256 | Bliss excess [6]: -0.0001 | Bliss excess [7]: 0.0021 | Bliss excess [8]: -0.002 | Bliss excess [9]: -0.0704 | Bliss excess [10]: -0.0639 | Bliss excess [11]: -0.0251 | Bliss excess [12]: -0.0156 | Bliss excess [13]: -0.0197 | Bliss excess [14]: 0.0359 | Bliss excess [15]: -0.0909 | Bliss excess [16]: -0.048 | Bliss excess [17]: -0.0338 | Bliss excess [18]: -0.0357 | Bliss excess [19]: -0.03 | Bliss excess [20]: -0.0222 | combination Emax [21]: 0.15 | combination Emax [22]: 0.112 | combination Emax [23]: 0.258 | combination Emax [24]: 0.181 | combination Emax [25]: 1 | combination Emax [26]: 0.236 | combination Emax [27]: 0.268 | combination Emax [28]: 0.888 | combination Emax [29]: 0.745 | combination Emax [30]: 0.0904 | combination Emax [31]: 0.873 | combination Emax [32]: 0.162 | combination Emax [33]: 0.152 | combination Emax [34]: 0.538 | combination Emax [35]: 0.26 | combination Emax [36]: 0.33 | combination Emax [37]: 0.187 | combination Emax [38]: 0.183 | combination Emax [39]: 0.283 | combination Emax [40]: 0.402

CC(=O)c1c(C)c2cnc(Nc3ccc(N4CCNCC4)cn3)nc2n(C2CCCC2)c1=O [Palbociclib] + CN(CC[C@H](CSC1=CC=CC=C1)NC2=C(C=C(C=C2)S(=O)(=O)NC(=O)C3=CC=C(C=C3)N4CCC(CC4)[C@H](C5=CC=CC=C5C6=CC=C(C=C6)Cl)O)S(=O)(=O)C(F)(F)F)CCO [AZD4320] (first compound max 10 µM, 7x7, partner max 1 µM)
Bliss excess [1]: -0.0393 | Bliss excess [2]: -0.115 | Bliss excess [3]: -0.041 | Bliss excess [4]: -0.0826 | Bliss excess [5]: -0.0087 | Bliss excess [6]: -0.0307 | Bliss excess [7]: -0.0178 | Bliss excess [8]: -0.0491 | Bliss excess [9]: 0.0272 | Bliss excess [10]: -0.0496 | Bliss excess [11]: 0.0673 | Bliss excess [12]: -0.0486 | Bliss excess [13]: -0.0374 | Bliss excess [14]: -0.0438 | Bliss excess [15]: -0.085 | Bliss excess [16]: -0.0344 | Bliss excess [17]: -0.058 | Bliss excess [18]: -0.0753 | Bliss excess [19]: -0.0257 | Bliss excess [20]: -0.0302 | combination Emax [21]: 0.211 | combination Emax [22]: 0.647 | combination Emax [23]: 0.165 | combination Emax [24]: 0.292 | combination Emax [25]: 1 | combination Emax [26]: 0.288 | combination Emax [27]: 0.332 | combination Emax [28]: 0.891 | combination Emax [29]: 0.841 | combination Emax [30]: 0.381 | combination Emax [31]: 0.984 | combination Emax [32]: 0.45 | combination Emax [33]: 0.445 | combination Emax [34]: 0.657 | combination Emax [35]: 0.323 | combination Emax [36]: 0.667 | combination Emax [37]: 0.277 | combination Emax [38]: 0.136 | combination Emax [39]: 0.37 | combination Emax [40]: 0.466
